Source: ChEMBL document CHEMBL5143650, “Synthesis and biological evaluation of new series of quinazoline derivatives as EGFR/HER2 dual-target inhibitors” (Bioorg Med Chem Lett, 2022)
pIC50: −log10 of the molar value.

Columns and labels:
[1] = Inhibition of recombinant human N-terminal His-tagged EGFR (676 to 1255 residues) expressed in Sf21 insect cells at 200 uM using kinase substrate 22 incubated for 30 mins in presence of ATP relative to control
PC-9 = assay: Antiproliferative activity against human PC-9 cells expressing EGFR E746/A750 deletion mutant assessed as reduction in cell viability after 72 hrs by CCK-8 assay; assay type: functional
Calu-3 = assay: Antiproliferative activity against human Calu-3 cells assessed as reduction in cell viability after 72 hrs by CCK-8 assay; assay type: functional
NCI-H358 = assay: Antiproliferative activity against human NCI-H358 cells assessed as reduction in cell viability after 72 hrs by CCK-8 assay; assay type: functional
[2] = Inhibition of recombinant human N-terminal His-tagged EGFR (676 to 1255 residues) expressed in Sf21 insect cells using kinase substrate 22 incubated for 30 mins in presence of ATP
[3] = Antiproliferative activity against human NCI-H1781 cells expressing HER G776V mutant assessed as reduction in cell viability after 72 hrs by CCK-8 assay; assay type: functional
[4] = target: Epidermal growth factor receptor (Homo sapiens, UniProt P00533); assay: Inhibition of recombinant human N-terminal GST-tagged EGFR (669 to 1210 residues) expressed in Sf21 insect cells using kinase substrate 22 incubated for 30 mins in presence of ATP
Epidermal growth factor receptor, sequence (P00533 whole entry, the tested form may be a part): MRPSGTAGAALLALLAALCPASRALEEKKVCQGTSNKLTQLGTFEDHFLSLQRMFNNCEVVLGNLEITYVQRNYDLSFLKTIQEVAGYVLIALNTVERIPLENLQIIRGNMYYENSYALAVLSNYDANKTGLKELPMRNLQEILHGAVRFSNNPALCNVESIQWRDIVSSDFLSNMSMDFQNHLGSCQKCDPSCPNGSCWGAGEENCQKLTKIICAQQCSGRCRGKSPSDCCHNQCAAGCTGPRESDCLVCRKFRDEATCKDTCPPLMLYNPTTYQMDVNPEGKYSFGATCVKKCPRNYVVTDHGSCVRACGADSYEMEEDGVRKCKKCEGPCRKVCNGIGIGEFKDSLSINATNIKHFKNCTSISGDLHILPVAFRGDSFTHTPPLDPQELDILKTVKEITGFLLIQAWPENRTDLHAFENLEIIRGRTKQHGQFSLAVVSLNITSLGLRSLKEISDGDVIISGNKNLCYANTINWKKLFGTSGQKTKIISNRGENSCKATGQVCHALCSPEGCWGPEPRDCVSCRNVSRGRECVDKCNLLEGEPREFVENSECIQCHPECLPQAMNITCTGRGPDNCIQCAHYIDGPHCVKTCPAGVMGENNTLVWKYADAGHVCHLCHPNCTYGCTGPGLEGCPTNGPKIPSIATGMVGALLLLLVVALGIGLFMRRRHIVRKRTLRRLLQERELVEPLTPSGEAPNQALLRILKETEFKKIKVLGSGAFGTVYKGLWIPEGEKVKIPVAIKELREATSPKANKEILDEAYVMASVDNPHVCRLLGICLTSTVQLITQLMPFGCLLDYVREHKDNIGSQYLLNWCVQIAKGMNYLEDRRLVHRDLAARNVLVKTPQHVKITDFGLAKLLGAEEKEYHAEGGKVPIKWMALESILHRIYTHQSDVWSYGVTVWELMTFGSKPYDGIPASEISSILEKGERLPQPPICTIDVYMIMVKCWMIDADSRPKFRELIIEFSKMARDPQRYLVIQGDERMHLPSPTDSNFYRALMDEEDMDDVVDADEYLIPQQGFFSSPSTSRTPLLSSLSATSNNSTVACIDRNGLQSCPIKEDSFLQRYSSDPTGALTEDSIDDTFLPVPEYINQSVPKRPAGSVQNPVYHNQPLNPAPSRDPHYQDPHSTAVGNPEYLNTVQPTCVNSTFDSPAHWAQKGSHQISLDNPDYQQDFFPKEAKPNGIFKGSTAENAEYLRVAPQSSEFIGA

GI50 (PC-9) [nM]	GI50 (Calu-3) [nM]	GI50 (NCI-H358) [nM]	pIC50 [4]	SMILES	inhibition [1] [%]	pIC50 [2]	GI50 [3] [nM]
–	–	–	–	C=CC(=O)N1CCN(C(=O)Oc2cc3c(Nc4cnc5ccccc5c4)ncnc3cc2OC)[C@H](C)C1	14.9	–	–
–	–	–	–	C=C(C)C(=O)N1CCN(C(=O)Oc2cc3c(Nc4ccc(Cl)c(Cl)c4F)ncnc3cc2OC)[C@H](C)C1	43.6	–	–
–	–	–	–	C=C(F)C(=O)N1C[C@@H]2C[C@H]1CN2C(=O)Oc1cc2c(Nc3ccc(Cl)c(Cl)c3F)ncnc2cc1OC	47.9	–	–
0.37	2.77	1	–	CN(C)C/C=C/C(=O)Nc1cc2c(Nc3ccc(F)c(Cl)c3)ncnc2cc1O[C@H]1CCOC1 [AFATINIB]	102	8.77	0.23
–	–	–	–	C=CC(=O)N1CCN(C(=O)Oc2cc3c(Nc4ccc(C#N)c(Cl)c4)ncnc3cc2OC)[C@H](C)C1	11.9	–	–
–	–	–	–	C=CC(=O)N1CCN(C(=O)Oc2cc3c(Nc4ccc5ccccc5c4)ncnc3cc2OC)[C@H](C)C1	30.8	–	–
–	–	–	–	C=CC(=O)N1CCN(C(=O)Oc2cc3c(Nc4ccc5scnc5c4)ncnc3cc2OC)[C@H](C)C1	5.8	–	–
0.9	10.1	8.67	–	C=CC(=O)N1CCC(Oc2cc3c(Nc4ccc(Cl)c(Cl)c4F)ncnc3cc2OC)CC1 [POZIOTINIB]	97.1	8.41	2.27
–	–	–	–	C=CC(=O)N1CCN(C(=O)Oc2cc3c(Nc4ccc(C#N)cc4)ncnc3cc2OC)[C@H](C)C1	4.4	–	–
–	–	–	–	C=CC(=O)N1CCN(C(=O)Oc2cc3c(Nc4ccc(Cl)c(Cl)c4F)ncnc3cc2OC)[C@H](C)C1	48.9	–	–
6.03	264	464	9.47	C=CC(=O)N1CCN(C(=O)Oc2cc3c(Nc4cccc(Cl)c4F)ncnc3cc2OC)[C@H](C)C1	53.4	6.82	> 2000
299	718	671	9.49	C#CC(=O)N1CCN(C(=O)Oc2cc3c(Nc4ccc(Cl)c(Cl)c4F)ncnc3cc2OC)[C@H](C)C1	94	7.65	> 2000
–	–	–	–	C=CC(=O)N1CCN(C(=O)Oc2cc3c(Nc4ccc(F)c(C#N)c4)ncnc3cc2OC)[C@H](C)C1	13.9	–	–
90.8	553	1020	9.42	C=C(C(=O)N1CCN(C(=O)Oc2cc3c(Nc4ccc(Cl)c(Cl)c4F)ncnc3cc2OC)[C@H](C)C1)C(F)(F)F	82.7	7.55	> 2000
–	–	–	–	C=C(F)C(=O)N1CCN(C(=O)Oc2cc3c(Nc4ccc(Cl)c(Cl)c4F)ncnc3cc2OC)[C@H](C)C1	41.1	–	–
1.95	23.1	23.3	9.52	C=CC(=O)N1C[C@@H]2C[C@H]1CN2C(=O)Oc1cc2c(Nc3ccc(Cl)c(Cl)c3F)ncnc2cc1OC	95.8	8.22	41.6
–	–	–	–	C=C(F)C(=O)N1CCN(C(=O)Oc2cc3c(Nc4cnc5ccccc5c4)ncnc3cc2OC)[C@H](C)C1	11.5	–	–
92.3	1340	619	9.27	C=CC(=O)Oc1cc2c(Nc3ccc(Cl)c(Cl)c3F)ncnc2cc1OC	71.5	7.26	> 2000
–	–	–	–	C=CC(=O)N1CCN(C(=O)Oc2cc3c(Nc4cc(C(C)(C)C)no4)ncnc3cc2OC)[C@H](C)C1	14.6	–	–
–	–	–	–	C=CC(=O)N1CCN(C(=O)Oc2cc3c(Nc4ccc5ncccc5c4)ncnc3cc2OC)[C@H](C)C1	2.6	–	–
–	–	–	–	C=CC(=O)N1CCN(C(=O)Oc2cc3c(Nc4ccc(C#N)c(F)c4)ncnc3cc2OC)[C@H](C)C1	2.3	–	–
